Experimental data published in patent US11141410B2 (MERCK SHARP & DOHME CORP., priority 2015, dated 2021).

Experiments:
MRSA COL (MB5393) [1] = assay: TarO Inhibitor/β-Lactam Synergy Assay (growth, OD600); assay type: cell-based, Staphylococcus aureus; conditions: for MITC95 TarO inhibitor + 4 μg/mL IPM; Bacteria: SA_MB5393: in combination with 4 μg/mL imipenem (IPM); for MITC95 TarO inhibitor + 8 μg/mL DCX; Bacteria: SA_MB5393: in combination with 8 μg/mL dicloxacillin (DCX)
Method: The TarO inhibitor/β-lactam synergy assay was performed to measure the re-sensitization of methicillin-resistant Staphylococci bacteria (MB5393: MRSA COL) to β-lactam antibiotics by TarO inhibitors. MRSA COL is a hospital-acquired penicillinase-negative clinically isolated strain commonly used in Staphylococcus aureus studies and is fully resistant to the antimicrobial bioactivity of β-lactam antibiotics, including but not limited to imipenem and dicloxacillin. […] MRSA COL is fully refractory to β-lactam antibiotic effect at the current clinical breakpoint concentrations and as such MRSA COL is fully viable at these concentrations.
The β-lactam antibiotic concentration was fixed at the clinical breakpoint (imipenem 4 μg/ml or dicloxacillin 8 μg/ml) and the TarO inhibitors were titrated by 2 fold starting from the highest concentration of 200 μM with final DMSO concentration of 2% in the assay. 5×10^5 colony forming unit of MRSA COL in cation-adjusted Mueller Hinton broth (CAMHB) was then mixed and the assay plate was incubated for 20 hours at 37° C. without shaking. After 20 hours, the optical density at 600 nm (OD600) was read for all wells to determine relative growth of MRSA COL.

MRSA COL (MB5393) [2] = assay: as above; assay type: cell-based; conditions: Staphylococcus aureus, TarO inhibitor alone, >200 μM = 95% growth inhibition not achieved, 20 hours at 37° C., read-out: MITC95 TarO inhibitor alone, Bacteria: SA_MB5393

C[C@H]1[C@@H](c2cccc(C(F)(F)F)c2)OC(=O)N1C(=O)NCc1cncc2cccnc12 [Example 15, (4S,5R)-4-methyl-N-(1,6-naphthyridin-8-ylmethyl)-2-oxo-5-[3-(trifluoromethyl)phenyl]-1,3-oxazolidine-3-carboxamide]
MITC95 TarO inhibitor + 4 μg/mL IPM; Bacteria: SA_MB5393 (MRSA COL (MB5393) [1]): 0.98 µM
MITC95 TarO inhibitor + 8 μg/mL DCX; Bacteria: SA_MB5393 (MRSA COL (MB5393) [1]): 4.69 µM
IC95 (MRSA COL (MB5393) [2]): > 200 µM

Cc1ccccc1CNC(=O)N1C(=O)O[C@H](c2cc(F)cc(C(F)(F)F)c2)[C@@H]1C [Example 16, (4S,5R)-5-[3-fluoro-5-(trifluoromethyl)phenyl]-4-methyl-N-(2-methylbenzyl)-2-oxo-1,3-oxazolidine-3-carboxamide]
MITC95 TarO inhibitor + 4 μg/mL IPM; Bacteria: SA_MB5393 (MRSA COL (MB5393) [1]): 0.38 µM
MITC95 TarO inhibitor + 8 μg/mL DCX; Bacteria: SA_MB5393 (MRSA COL (MB5393) [1]): 3.52 µM
IC95 (MRSA COL (MB5393) [2]): > 200 µM

C[C@H]1[C@@H](c2cc(C(F)(F)F)cc(C(F)(F)F)c2)OC(=O)N1C(=O)NCc1nccc2ccoc12 [Example 17, (4S,5R)-5-[3,5-bis(trifluoromethyl)phenyl]-N-(furo[2,3-c]pyridin-7-ylmethyl)-4-methyl-2-oxo-1,3-oxazolidine-3-carboxamide]
MITC95 TarO inhibitor + 4 μg/mL IPM; Bacteria: SA_MB5393 (MRSA COL (MB5393) [1]): 0.39 µM
MITC95 TarO inhibitor + 8 μg/mL DCX; Bacteria: SA_MB5393 (MRSA COL (MB5393) [1]): 4.30 µM
IC95 (MRSA COL (MB5393) [2]): > 200 µM

C[C@H]1[C@@H](c2cc(C(F)(F)F)cc(C(F)(F)F)c2)OC(=O)N1C(=O)NCC1CCCc2ccccc21 (stereo partly drawn) [Example 19, (4S,5R)-5-[3,5-bis(trifluoromethyl)phenyl]-4-methyl-2-oxo-N-(1,2,3,4-tetrahydronaphthalen-1-ylmethyl)-1,3-oxazolidine-3-carboxamide]
MITC95 TarO inhibitor + 4 μg/mL IPM; Bacteria: SA_MB5393 (MRSA COL (MB5393) [1]): 0.15 µM
MITC95 TarO inhibitor + 8 μg/mL DCX; Bacteria: SA_MB5393 (MRSA COL (MB5393) [1]): 1.45 µM
IC95 (MRSA COL (MB5393) [2]): > 200 µM

Cc1nc(C(C)C)sc1CNC(=O)N1C(=O)O[C@H](c2cc(F)cc(C(F)(F)F)c2)[C@@H]1C [Example 20, (4S,5R)-5-[3-fluoro-5-(trifluoromethyl)phenyl]-4-methyl-N-{[4-methyl-2-(1-methylethyl)-1,3-thiazol-5-yl]methyl}-2-oxo-1,3-oxazolidine-3-carboxamide]
MITC95 TarO inhibitor + 4 μg/mL IPM; Bacteria: SA_MB5393 (MRSA COL (MB5393) [1]): 0.43 µM
MITC95 TarO inhibitor + 8 μg/mL DCX; Bacteria: SA_MB5393 (MRSA COL (MB5393) [1]): 3.65 µM
IC95 (MRSA COL (MB5393) [2]): > 200 µM

C[C@H]1[C@@H](c2cc(F)cc(C(F)(F)F)c2)OC(=O)N1C(=O)NCc1ccccc1Cl [Example 21, (4S,5R)-N-(2-chlorobenzyl)-5-[3-fluoro-5-(trifluoromethyl)phenyl]-4-methyl-2-oxo-1,3-oxazolidine-3-carboxamide]
MITC95 TarO inhibitor + 4 μg/mL IPM; Bacteria: SA_MB5393 (MRSA COL (MB5393) [1]): 0.16 µM
MITC95 TarO inhibitor + 8 μg/mL DCX; Bacteria: SA_MB5393 (MRSA COL (MB5393) [1]): 1.73 µM
IC95 (MRSA COL (MB5393) [2]): > 200 µM

C[C@H]1[C@@H](c2cc(F)cc(C(F)(F)F)c2)OC(=O)N1C(=O)NCc1cccc2nccnc12 [Example 22, (4S,5R)-5-[3-fluoro-5-(trifluoromethyl)phenyl]-4-methyl-2-oxo-N-(quinoxalin-5-ylmethyl)-1,3-oxazolidine-3-carboxamide]
MITC95 TarO inhibitor + 4 μg/mL IPM; Bacteria: SA_MB5393 (MRSA COL (MB5393) [1]): 0.49 µM
MITC95 TarO inhibitor + 8 μg/mL DCX; Bacteria: SA_MB5393 (MRSA COL (MB5393) [1]): 6.25 µM
IC95 (MRSA COL (MB5393) [2]): > 200 µM

C[C@H]1[C@@H](c2cc(F)cc(C(F)(F)F)c2)OC(=O)N1C(=O)NCc1ccnc2ccccc12 [Example 23, (4S,5R)-5-[3-fluoro-5-(trifluoromethyl)phenyl]-4-methyl-2-oxo-N-(quinolin-4-ylmethyl)-1,3-oxazolidine-3-carboxamide]
MITC95 TarO inhibitor + 4 μg/mL IPM; Bacteria: SA_MB5393 (MRSA COL (MB5393) [1]): 0.61 µM
MITC95 TarO inhibitor + 8 μg/mL DCX; Bacteria: SA_MB5393 (MRSA COL (MB5393) [1]): 4.84 µM
IC95 (MRSA COL (MB5393) [2]): > 200 µM

COc1ccccc1CNC(=O)N1C(=O)O[C@H](c2cccc(C(F)(F)F)c2)[C@@H]1C [Example 24, (4S,5R)-N-(2-methoxybenzyl)-4-methyl-2-oxo-5-[3-(trifluoromethyl)phenyl]-1,3-oxazolidine-3-carboxamide]
MITC95 TarO inhibitor + 4 μg/mL IPM; Bacteria: SA_MB5393 (MRSA COL (MB5393) [1]): 0.20 µM
MITC95 TarO inhibitor + 8 μg/mL DCX; Bacteria: SA_MB5393 (MRSA COL (MB5393) [1]): 7.29 µM
IC95 (MRSA COL (MB5393) [2]): > 200 µM

C[C@H]1[C@@H](c2cc(F)cc(Br)c2)OC(=O)N1C(=O)NCc1cncc2ccccc12 [Example 25, (4S,5R)-5-(3-bromo-5-fluorophenyl)-N-(isoquinolin-4-ylmethyl)-4-methyl-2-oxo-1,3-oxazolidine-3-carboxamide]
MITC95 TarO inhibitor + 4 μg/mL IPM; Bacteria: SA_MB5393 (MRSA COL (MB5393) [1]): 0.22 µM
MITC95 TarO inhibitor + 8 μg/mL DCX; Bacteria: SA_MB5393 (MRSA COL (MB5393) [1]): 1.38 µM
IC95 (MRSA COL (MB5393) [2]): > 200 µM

C[C@H]1[C@@H](c2cc(F)cc(C3CC3)c2)OC(=O)N1C(=O)NCc1cncc2ccccc12 [Example 26, (4S,5R)-5-(3-cyclopropyl-5-fluorophenyl)-N-(isoquinolin-4-ylmethyl)-4-methyl-2-oxo-1,3-oxazolidine-3-carboxamide]
MITC95 TarO inhibitor + 4 μg/mL IPM; Bacteria: SA_MB5393 (MRSA COL (MB5393) [1]): 0.25 µM
MITC95 TarO inhibitor + 8 μg/mL DCX; Bacteria: SA_MB5393 (MRSA COL (MB5393) [1]): 0.99 µM
IC95 (MRSA COL (MB5393) [2]): > 200 µM

C[C@H]1[C@@H](c2cccc(C(C)(F)F)c2)OC(=O)N1C(=O)NCc1cncc2ccccc12 [Example 27, (4S,5R)-5-[3-(1,1-difluoroethyl)phenyl]-N-(isoquinolin-4-ylmethyl)-4-methyl-2-oxo-1,3-oxazolidine-3-carboxamide]
MITC95 TarO inhibitor + 4 μg/mL IPM; Bacteria: SA_MB5393 (MRSA COL (MB5393) [1]): 0.39 µM
MITC95 TarO inhibitor + 8 μg/mL DCX; Bacteria: SA_MB5393 (MRSA COL (MB5393) [1]): 3.65 µM
IC95 (MRSA COL (MB5393) [2]): > 200 µM

C[C@H]1[C@@H](c2cc(C(F)(F)F)cc(C(F)(F)F)c2)OC(=O)N1C(=O)NCc1ncccc1Br [Example 28, (4S,5R)-5-[3,5-bis(trifluoromethyl)phenyl]-N-[(3-bromopyridin-2-yl)methyl]-4-methyl-2-oxo-1,3-oxazolidine-3-carboxamide]
MITC95 TarO inhibitor + 4 μg/mL IPM; Bacteria: SA_MB5393 (MRSA COL (MB5393) [1]): 0.70 µM
MITC95 TarO inhibitor + 8 μg/mL DCX; Bacteria: SA_MB5393 (MRSA COL (MB5393) [1]): 4.69 µM
IC95 (MRSA COL (MB5393) [2]): > 200 µM

Cc1nn(C)c(C)c1CNC(=O)N1C(=O)O[C@H](c2cc(F)cc(C(F)(F)F)c2)[C@@H]1C [Example 29, (4S,5R)-5-[3-fluoro-5-(trifluoromethyl)phenyl]-4-methyl-2-oxo-N-[(1,3,5-trimethyl-1H-pyrazol-4-yl)methyl]-1,3-oxazolidine-3-carboxamide]
MITC95 TarO inhibitor + 4 μg/mL IPM; Bacteria: SA_MB5393 (MRSA COL (MB5393) [1]): 0.78 µM
MITC95 TarO inhibitor + 8 μg/mL DCX; Bacteria: SA_MB5393 (MRSA COL (MB5393) [1]): 5.21 µM
IC95 (MRSA COL (MB5393) [2]): > 200 µM

C[C@H]1[C@@H](c2cc(F)cc(C(F)(F)F)c2)OC(=O)N1C(=O)NCc1cccc2cncnc12 [Example 30, (4S,5R)-5-[3-fluoro-5-(trifluoromethyl)phenyl]-4-methyl-2-oxo-N-(quinazolin-8-ylmethyl)-1,3-oxazolidine-3-carboxamide]
MITC95 TarO inhibitor + 4 μg/mL IPM; Bacteria: SA_MB5393 (MRSA COL (MB5393) [1]): 0.68 µM
MITC95 TarO inhibitor + 8 μg/mL DCX; Bacteria: SA_MB5393 (MRSA COL (MB5393) [1]): 4.69 µM
IC95 (MRSA COL (MB5393) [2]): > 200 µM

Cc1cccnc1CNC(=O)N1C(=O)O[C@H](c2cc(C(F)(F)F)cc(C(F)(F)F)c2)[C@@H]1C [Example 31, (4S,5R)-5-[3,5-bis(trifluoromethyl)phenyl]-4-methyl-N-[(3-methylpyridin-2-yl)methyl]-2-oxo-1,3-oxazolidine-3-carboxamide]
MITC95 TarO inhibitor + 4 μg/mL IPM; Bacteria: SA_MB5393 (MRSA COL (MB5393) [1]): 0.43 µM
MITC95 TarO inhibitor + 8 μg/mL DCX; Bacteria: SA_MB5393 (MRSA COL (MB5393) [1]): 8.33 µM
IC95 (MRSA COL (MB5393) [2]): > 200 µM

C[C@H]1[C@@H](c2cc(F)cc(C(F)(F)F)c2)OC(=O)N1C(=O)NCc1ccccc1-n1cccc1 [Example 32, (4S,5R)-5-[3-fluoro-5-(trifluoromethyl)phenyl]-4-methyl-2-oxo-N-[2-(1H-pyrrol-1-yl)benzyl]-1,3-oxazolidine-3-carboxamide]
MITC95 TarO inhibitor + 4 μg/mL IPM; Bacteria: SA_MB5393 (MRSA COL (MB5393) [1]): 0.59 µM
MITC95 TarO inhibitor + 8 μg/mL DCX; Bacteria: SA_MB5393 (MRSA COL (MB5393) [1]): 4.69 µM
IC95 (MRSA COL (MB5393) [2]): > 200 µM

C[C@H]1[C@@H](c2cccc(C(F)F)c2)OC(=O)N1C(=O)NCc1cncc2ccccc12 [Example 33, (4S,5R)-5-[3-(difluoromethyl)phenyl]-N-(isoquinolin-4-ylmethyl)-4-methyl-2-oxo-1,3-oxazolidine-3-carboxamide]
MITC95 TarO inhibitor + 4 μg/mL IPM; Bacteria: SA_MB5393 (MRSA COL (MB5393) [1]): 1.37 µM
MITC95 TarO inhibitor + 8 μg/mL DCX; Bacteria: SA_MB5393 (MRSA COL (MB5393) [1]): 9.38 µM
IC95 (MRSA COL (MB5393) [2]): > 200 µM

C[C@H]1[C@@H](c2cc(F)cc(C(F)(F)F)c2)OC(=O)N1C(=O)NCc1ccnc2cccnc12 [Example 34, (4S,5R)-5-[3-fluoro-5-(trifluoromethyl)phenyl]-4-methyl-N-(1,5-naphthyridin-4-ylmethyl)-2-oxo-1,3-oxazolidine-3-carboxamide]
MITC95 TarO inhibitor + 4 μg/mL IPM; Bacteria: SA_MB5393 (MRSA COL (MB5393) [1]): 1.95 µM
MITC95 TarO inhibitor + 8 μg/mL DCX; Bacteria: SA_MB5393 (MRSA COL (MB5393) [1]): 14.06 µM
IC95 (MRSA COL (MB5393) [2]): > 200 µM
